Values of other authors as cited in patent US20130030007A1, “Obesity Small Molecules” (AKRON MOLECULES GMBH, priority 2010, published 2013).
Structures can show the parent of a compound that is named as a salt. Residues, ends and D or L forms follow the SMILES beside them. *: point of attachment. Cbz = O=C(OCc1ccccc1)*

Tested on: human ortholog of Drosophila obesity gene
Parameters: key: O: Obesity - obesity pathway interaction; B: validated binding partner
Conditions: cited from earlier work
In the case of `C[C@@H]1C[C@H]2O[C@@H]2/C=C\C=C\C(=O)Cc2c(Cl)c(O)cc(O)c2C(=O)O1` [Monorden], the “Type: Type of interaction” value is listed as “B”. In the case of `C/C=C1/C(=O)N[C@@H](C(=O)O)[C@H](C)C(=O)N[C@@H](C(C)C)C(=O)N[C@@H](/C=C/C(C)=C/[C@H](C)[C@H](Cc2ccccc2)OC)[C@H](C)C(=O)N[C@@H](C(=O)O)CCC(=O)N1C` [Motuporin], the “Type: Type of interaction” value is given as “O”. In the case of `Cn1cnc([N+](=O)[O-])c1Sc1ncnc2nc[nH]c12` [Muran], the “Type: Type of interaction” value is given as “O”. For `C[C@@H]1O[C@H](C[N+](C)(C)C)C[C@H]1O` [Muscarine], the “Type: Type of interaction” value is given as “B”. For `Nc1ccc(CCN2CN(c3ccccc3)C3(CCN(CCCC(=O)c4ccc(F)cc4)CC3)C2=O)cc1` [N-(4-aminophenethyl)spiroperidol], the “Type: Type of interaction” value is given as “B”. In the case of `CC(NC(N)=O)c1cc2ccccc2s1` (centres unmarked) [N-dehydroxyzileuton], the “Type: Type of interaction” value is given as “O”. For `O=C1CC(=O)N(c2ccccc2)c2cc(Cl)ccc2N1` [N-desmethylclobazam], the “Type: Type of interaction” value is listed as “B”. In the case of `COc1ccccc1N1CCN(CC(C(=O)NC(C)(C)C)c2ccccc2)CC1` (centres unmarked) [N-tert-butyl-3-[4-(2-methoxyphenyl)piperazin-1-yl]-2-phenylpropanamide], the “Type: Type of interaction” value is listed as “B”. In the case of `CCCC(=O)[O-].[Na+]` [NABU], the “Type: Type of interaction” value is given as “O”. In the case of `CN[C@H](CC(=O)O)C(=O)O` [NMDA], the “Type: Type of interaction” value is listed as “O”. For `CCN(CC)CCCC(C)Nc1nc(C)cc(Nc2ccc3nc(C)cc(N)c3c2)n1` (centres unmarked) [NSC 23766], the “Type: Type of interaction” value is given as “B”. In the case of `Nc1nc(OCC2CCCCC2)c2[nH]cnc2n1` [NU2058], the “Type: Type of interaction” value is listed as “B”. For `NS(=O)(=O)c1ccc(Nc2nc(OCC3CCCCC3)c3[nH]cnc3n2)cc1` [NU6102], the “Type: Type of interaction” value is listed as “B”. For `Nc1ncnc2c1c(-c1cccc(OCc3ccccc3)c1)cn2C1CC(CN2CCC2)C1` (centres unmarked) [NVP-AEW541], the “Type: Type of interaction” value is given as “O”. For `NC[C@@H]1O[C@H](O[C@H]2[C@@H](O)[C@H](O[C@@H]3[C@@H](O)[C@H](N)C[C@H](N)[C@H]3O[C@H]3O[C@H](CN)[C@@H](O)[C@H](O)[C@H]3N)O[C@@H]2CO)[C@H](N)[C@@H](O)[C@@H]1O` [Neomycin], the “Type: Type of interaction” value is listed as “B”. For `Oc1ccc2c3c1O[C@H]1c4[nH]c5c(c4C[C@@]4(O)[C@@H](C2)N(CC2CC2)CC[C@]314)C[C@@]1(O)[C@H]2Cc3ccc(O)c4c3[C@@]1(CCN2CC1CC1)[C@H]5O4` [Norbinaltorphimine], the “Type: Type of interaction” value is given as “O”. In the case of `CN(C)CC1CCCCC1(O)c1cccc(O)c1` (centres unmarked) [O-demethyltramadol], the “Type: Type of interaction” value is listed as “O”. For `Oc1ccccc1OC(c1ccccc1)C1CNCCO1` (centres unmarked) [O-desethylreboxetine], the “Type: Type of interaction” value is given as “B”. For `C[C@@H](O)[C@@H]1NC(=O)[C@H](CCCCN)NC(=O)[C@@H](Cc2c[nH]c3ccccc23)NC(=O)[C@H](Cc2ccccc2)NC(=O)[C@@H](NC(=O)[C@H](N)Cc2ccccc2)CSSC[C@@H](C(=O)N[C@H](CO)[C@@H](C)O)NC1=O` [Octreotide], the “Type: Type of interaction” value is listed as “B and O”. For `C[Si](Cn1cncn1)(c1ccc(F)cc1)c1ccc(F)cc1` [Olymp], the “Type: Type of interaction” value is given as “O”. For `C[C@]12CCC(=O)C=C1CC[C@@H]1[C@@H]2[C@@H](O)C[C@@]2(C)[C@H]1CC[C@]2(O)C(=O)CO` [Optef], the “Type: Type of interaction” value is given as “O”. For `NCCc1cc(O)c(O)cc1O` [Oxidopamine], the “Type: Type of interaction” value is given as “B”. In the case of `COc1cccc(-c2cc(=O)c3ccccc3o2)c1N` [PD 98059], the “Type: Type of interaction” value is listed as “B”. For `O=[N+]([O-])c1ccc(-c2nc(-c3ccc(F)cc3)c(-c3ccncc3)[nH]2)cc1` [PD 169316], the “Type: Type of interaction” value is given as “B”. In the case of `CCN(CC)CCCCNc1ncc2cc(-c3cc(OC)cc(OC)c3)c(NC(=O)NC(C)(C)C)nc2n1` [PD 173074], the “Type: Type of interaction” value is listed as “B”. For `CCCC(=O)O[C@@H]1[C@@H](C)[C@@]2(O)[C@@H](C=C(CO)C[C@]3(O)C(=O)C(C)=C[C@@H]23)[C@@H]2C(C)(C)[C@]12OC(=O)CCC` [PDBU], the “Type: Type of interaction” value is listed as “O”.

Same assay, conditions: interaction of the small molecule with the human ortholog(s) / Drosophila gene(s) listed in the same table line; cited from earlier work
In the case of `O=C1c2c(O)ccc(O)c2C(=O)c2c(NCCNCCO)ccc(NCCNCCO)c21` [Mitoxantrone], the “Type: Type of interaction” value is listed as “O”. In the case of `CCOC(=O)[N-]c1cn(N2CCOCC2)n[o+]1` [Molsidomine], the “Type: Type of interaction” value is listed as “B”. In the case of `CC[C@@]1([C@@H]2O[C@@H]([C@H]3O[C@@](O)(CO)[C@H](C)C[C@@H]3C)C[C@@H]2C)CC[C@H]([C@]2(C)CC[C@]3(C[C@H](O)[C@@H](C)[C@@H]([C@@H](C)[C@@H](OC)[C@H](C)C(=O)O)O3)O2)O1` [Monensin], the “Type: Type of interaction” value is given as “O”. For `O=C(Nc1cc2ccccc2cn1)c1ccccc1NCc1ccncc1` [N-3-isoquinolinyl-2-((4-pyridinylmethyl)amino)benzamide], the “Type: Type of interaction” value is given as “O”. In the case of `Nc1ccc(N2C(=O)C=CC2=O)cc1` [N-(4-aminophenyl)maleimide], the “Type: Type of interaction” value is listed as “O”. For `N#Cc1cccc2sc(C(=O)NC(=N)N)cc12` [N-(4-cyano-benzo (b)thiophene-2-carbonyl)guanidine], the “Type: Type of interaction” value is listed as “O”. For `C[C@H](NC(CCCCCCCN)C(=O)O)C(=O)N1CCC[C@H]1C(=O)O` (some centres unmarked) [N-(8-amino-1-carboxyoctyl)-alanyl-proline], the “Type: Type of interaction” value is listed as “O”. For `O=C[C@@H]1CCCN1C(=O)[C@@H]1CCCN1C(=O)OCc1ccccc1` [N-benzyloxycarbonylprolyl-prolinal] (Cbz-Pro-Pro-aldehyde), the “Type: Type of interaction” value is given as “O”. In the case of `CCN1C(=O)C=CC1=O` [N-ethylmaleimide], the “Type: Type of interaction” value is listed as “O”. For `C#CCOc1ccccc1CCCCCC(=O)NS(C)(=O)=O` [N-methylsulfonyl-6-(2-propargyloxyphenyl)hexanamide], the “Type: Type of interaction” value is listed as “O”. For `COc1ccccc1N1CCN(CCCCN2C(=O)c3ccccc3C2=O)CC1` [NAN-190 hydrobromide], the “Type: Type of interaction” value is listed as “B”. For `O=C1C[C@@H](c2ccc(O)cc2)Oc2cc(O)cc(O)c21` [NARIGENIN], the “Type: Type of interaction” value is given as “O”. For `O=C(O)C[C@H](O)C[C@H](O)/C=C/c1c(C2CC2)nc2ccccc2c1-c1ccc(F)cc1` [NK 104], the “Type: Type of interaction” value is given as “B”. For `CNC(=O)[C@@H](Cc1ccccc1)N(C)C(=O)[C@@H](Cc1ccc2ccccc2c1)N(C)C(=O)/C=C/CC(C)(C)N` [NN 703], the “Type: Type of interaction” value is given as “B”. In the case of `O=c1c(-c2ccc(O)cc2)coc2cc(O)cc(O)c12` [NPI 031L], the “Type: Type of interaction” value is listed as “B”. In the case of `c1ccc2ccccc2c1` [Naftalen], the “Type: Type of interaction” value is given as “B”. For `C=CCN1CC[C@]23c4c5ccc(O)c4O[C@H]2C(=O)CC[C@@]3(O)[C@H]1C5` [Naloxone], the “Type: Type of interaction” value is listed as “O”. In the case of `O=C1CC[C@@]2(O)[C@H]3Cc4ccc(O)c5c4[C@@]2(CCN3CC2CC2)[C@H]1O5` [Naltrexone], the “Type: Type of interaction” value is given as “B”. For `c1ccc2c(CC3=NCCN3)cccc2c1` [Naphazoline], the “Type: Type of interaction” value is given as “O”. For `CCc1nn(CCCN2CCN(c3cccc(Cl)c3)CC2)c(=O)n1CCOc1ccccc1` [Nefazodone], the “Type: Type of interaction” value is listed as “O”. In the case of `Cc1c(O)cccc1C(=O)N[C@@H](CSc1ccccc1)[C@H](O)CN1C[C@H]2CCCC[C@H]2C[C@H]1C(=O)NC(C)(C)C` [Nelfinavir], the “Type: Type of interaction” value is listed as “O”. In the case of `Cc1ccnc2c1NC(=O)c1cccnc1N2C1CC1` [Nevirapine], the “Type: Type of interaction” value is listed as “O”. In the case of `NC(=O)c1cccnc1` [Niacinamide], the “Type: Type of interaction” value is given as “B”. For `O=C(OCC(COC(=O)c1cccnc1)(COC(=O)c1cccnc1)COC(=O)c1cccnc1)c1cccnc1` [Niceritrol], the “Type: Type of interaction” value is given as “O”. For `CO[C@@H]1C[C@@H](C[C@H]2CC[C@H](C)[C@H]([C@@H](C)C(=O)O)O2)O[C@]2(O[C@](C)([C@H]3CC[C@@](C)([C@@H]4O[C@@H]([C@H]5O[C@@](O)(CO)[C@H](C)C[C@@H]5C)C[C@@H]4C)O3)C[C@H]2C)[C@@H]1C` [Nigericin], the “Type: Type of interaction” value is listed as “O”. In the case of `COc1ccc(-c2cc(=O)c3c(OC)c(OC)c(OC)c(OC)c3o2)cc1OC` [Nobiletin], the “Type: Type of interaction” value is listed as “O”. In the case of `CC(Cc1ccc(O)c(O)c1)C(C)Cc1ccc(O)c(O)c1` (centres unmarked) [Nordihydroguaiaretic Acid], the “Type: Type of interaction” value is given as “B”. For `C#C[C@]1(O)CC[C@H]2[C@@H]3CCC4=CC(=O)CC[C@@H]4[C@H]3CC[C@@]21C` [Norethindrone], the “Type: Type of interaction” value is given as “O”. For `O=C(Nc1ccc(OC(F)(F)F)cc1)c1sccc1NCc1ccnc2ccccc12` [OSI 930], the “Type: Type of interaction” value is listed as “O”. For `NCC(=O)Nc1ccc(-n2nc(C(F)(F)F)cc2-c2ccc3c(ccc4ccccc43)c2)cc1` [OSU 03012], the “Type: Type of interaction” value is given as “B”. In the case of `NCCO` [Olamine], the “Type: Type of interaction” value is given as “B”. For `Cc1nccn1CC1CCc2c(c3ccccc3n2C)C1=O` (centres unmarked) [Ondansetron], the “Type: Type of interaction” value is listed as “O”. In the case of `CO[C@H]1O[C@H](COS(=O)(=O)O)[C@@H](O[C@@H]2O[C@@H](C(=O)O)[C@@H](O[C@H]3O[C@H](COS(=O)(=O)O)[C@@H](O[C@@H]4O[C@H](C(=O)O)[C@@H](O[C@H]5O[C@H](COS(=O)(=O)O)[C@@H](O)[C@H](O)[C@H]5NS(=O)(=O)O)[C@H](O)[C@H]4O)[C@H](OS(=O)(=O)O)[C@H]3NS(=O)(=O)O)[C@H](O)[C@H]2OS(=O)(=O)O)[C@H](O)[C@H]1NS(=O)(=O)O` [Org 31540], the “Type: Type of interaction” value is given as “B”. For `Cc1ccccc1C(OCCN(C)C)c1ccccc1` (centres unmarked) [Orphenadrine], the “Type: Type of interaction” value is listed as “O”. For `C[C@@H]1O[C@@H](O[C@H]2C[C@@H](O)[C@]3(CO)[C@H]4[C@H](O)C[C@]5(C)[C@@H](C6=CC(=O)OC6)CC[C@]5(O)[C@@H]4CC[C@]3(O)C2)[C@H](O)[C@H](O)[C@H]1O` [Ouabain], the “Type: Type of interaction” value is listed as “B”. For `CCN(CC)CC#CCOC(=O)C(O)(c1ccccc1)C1CCCCC1` (centres unmarked) [Oxytrol], the “Type: Type of interaction” value is listed as “O”.
